melting point [°C] | SMILES
177 to 179 | C=Cc1cc(C)cc(C)c1CC(=O)N(O)C1(C(=O)OC)CCN(OC)CC1
127 to 130 | CC(OC(=O)NC1(C(=O)O)CC1)OC(=O)C(C)C (stereo not given)
211 to 214 | O=P(c1ccccc1)(c1ccccc1)C(O)C(O)P(=O)(c1ccccc1)c1ccccc1 (stereo not given)
167 to 168 | COC(=O)c1cc(OC)c(OC)cc1NC(=O)c1sccc1S(=O)(=O)Nc1onc(C)c1Cl
245 to 250 | O=C1NC(=O)C(=Cc2ccc3c(c2)CCC(Cc2ccc(OCc4ccccc4)cc2)O3)S1 (stereo not given)
113 to 116 | CS(=O)(=O)CCCC1(C(=O)O)CCC1
277 to 279 | Cc1c(-c2ccccc2)n(-c2cc([N+](=O)[O-])ccc2Cl)c(-c2ccccc2)cc1=O
116 to 117 | CN1C(=O)c2ccccc2CC1c1ccc(C(C)(C)C)cc1 (stereo not given)
180 to 182 | O=C(O)Cc1ccc2c(c1)CC(CNS(=O)(=O)c1ccc3ccccc3c1)C2 (stereo not given)
43 to 45 | CCc1nsc(C(=O)O)c1C(=O)OC
160 to 162 | COC(=O)C(Sc1nnnn1-c1ccccc1)N1C(=O)c2ccccc2S1(=O)=O (stereo not given)
272 to 273 | O=C(c1ccc(Cl)cc1)[C@H]1C[C@H]1C(=O)N1CCC(N2Cc3ccccc3NC2=O)CC1 (relative stereo)
200 to 202 | Cc1ccc(S(=O)(=O)NCC(CC(=O)Nc2ccccc2)c2ccc(Cl)cc2)cc1 (stereo not given)
124 to 125 | [N-]=[N+]=NC1CC(n2cc(C=CBr)c(=O)[nH]c2=O)OC1CCl (stereo not given)
264 to 266 | COC(=O)c1nc2n(n1)-c1cc(Cl)ccc1N(c1ccc(Cl)cc1Cl)C2
162 to 164 | Cc1ccc(Cc2cnc(NCCCN)[nH]c2=O)cn1
104 to 105 | COC(CNC1=Nc2ccc(Cl)cc2C(c2ccccc2)N1C)OC (stereo not given)
159 to 165 | COC(=O)CCc1ccc(NC(=O)NNC(C)=O)cc1
191 to 192 | O=C(O)CN1C(=O)C(Cl)=C(Cl)C1=O
45 to 48 | CN1CCC(Oc2c(F)c(F)c(F)c(F)c2F)(c2ccc(C(F)(F)F)cc2)CC1
109 to 110 | O=c1c2ccc(Cl)cc2cc2n1CCCS2
100 to 105 | CCOc1cc2c(cc1OCC)C(C(C#N)SCCCO)=NCC2 (stereo not given)
207 to 209 | CCCc1nc2c(N)nc3ccccc3c2n1CCC(=O)N(C)C
187 to 188 | CCOc1ccc2nc(N)c3nc4n(c3c2c1)C(C)COC4 (stereo not given)

melting point [°C] | SMILES
84 to 86 | C[C@H](NC(=O)COCCNC(=O)C12CC3CC(CC(C3)C1)C2)C(=O)N[C@H](CCC(=O)O)C(N)=O
72 to 74 | CCOc1cc([C@@H](CCN(C=O)OC(C)=O)N2Cc3cccc(NC(=O)C(C)C)c3C2=O)ccc1OC
79 to 81 | CCCCCCCCCC(Oc1ccc(C2=CCCCCC2)cc1)C(=O)O (stereo not given)
52 to 53 | CCCOc1ccc(C=CCCCCC(=O)O)cc1
109 to 111 | O=C(c1ccc(Cl)cc1)C(Cc1nc[nH]n1)c1ccc(Cl)cc1Cl (stereo not given)
180 to 181 | O=C(O)C1=Cc2ccc(Oc3ccccc3)cc2OC1C(F)(F)F (stereo not given)
151 to 153 | O=C(O)CCc1cccc2ccccc12
173 to 174 | CCN(CC)CCNC(=O)c1cc(Cl)c(NC(=O)c2ccc3ccccc3c2)cc1OC
231 to 234 | CN(C)c1cc2c(cc1Cl)NC(=O)CC(c1cccc(-c3csc(Nc4ccncc4)n3)c1)=N2
148 to 149 | COc1cccc(Oc2c(NCCOc3ncccn3)ncnc2NS(=O)(=O)c2ccc(C(C)(C)C)cc2)c1
78 to 80 | Cc1c(CCOCCO[N+](=O)[O-])cc(-c2ccc(S(C)(=O)=O)cc2)n1-c1ccccc1
114 to 116 | CC(C)c1cc(C(=O)O)c(N)c(C(C)C)c1
156 | CCCCc1nc(SCC)c(C(=O)O)n1Cc1ccc(-c2ccccc2C(=O)O)cc1
100 | CCOc1ccc2[nH]c(=O)n(-c3ccc(C(C)C)cc3)c2c1
142 | CCCCC(=NNC(=O)c1ccccc1)c1ccncc1
42 to 44 | CCOC(=O)Cc1cnc(C(C)(C)C)nc1Cl
152 to 154 | CC(NC(=O)CCc1ccc(C(C)(C)C)cc1)c1ccc(NS(C)(=O)=O)c(F)c1 (stereo not given)
153 to 154 | CCC1(CC)OC(=O)c2cc(N)ccc21
126 to 128 | Cc1cccc(C)c1N(C(C)CCl)S(C)(=O)=O (stereo not given)
140 to 141 | Cc1nc(C2CCC(NC(=O)OCC3c4ccccc4-c4ccccc43)CC2)cs1 (stereo not given)
129 to 131 | O=C(ON1C(=O)CCC1=O)c1cccnc1
136 to 137 | COC(=O)c1cc(-c2ccc(OC)c(OC)c2)nn(CC2CC2)c1=O
129 to 130 | CCCN(c1ncncc1C#N)n1ccc2ccccc21
189 to 190 | CC1(C)Oc2ccc(OC(F)(F)F)cc2[C@@H](NC(=O)c2ccccc2[N+](=O)[O-])[C@@H]1O

melting point [°C] | SMILES
160 to 162 | NC(=O)c1ccc(-c2ccccc2OCC2CC2)[nH]c1=O
97 | CCC1(C)C(=O)c2c(Cl)cc(C)c(C)c2C1=O (stereo not given)
104 to 105 | COc1ccc(C2(c3ccc(OC(F)F)cc3)N=C(N)N(C)C2=O)cc1C#N (stereo not given)
60 to 61 | Cc1c(C)c2c(c(C)c1Br)CC(C)(CBr)O2 (stereo not given)
< 70 | CCOC(=O)c1ccc(-c2ccc(-c3ccccc3)cc2-c2ccc3c(c2)C(C)(C)CCC3(C)C)cc1O
173 to 175 | Nc1nc(-c2cc(Cl)ccc2Cl)nc(N2CCC(CO)CC2)n1
166 | COc1ccc2c(c1)CCn1ncnc1C2=C1CCN(C)CC1
51 to 53 | COC(=O)c1cc2ccc(C)cc2n1C(C)=O
228 to 231 | CC(C)(C)CN1C(=O)N(CC(=O)O)CC(c2ccccc2Cl)c2cc(Cl)ccc21 (stereo not given)
201 to 203 | Cc1c(SCCN2CCOCC2)ccnc1CSc1nc2ccccc2[nH]1
24 to 25 | CCOC(=O)c1ccc(OCCCCl)cc1
196 to 197 | CCCOc1ccc(S(=O)(=O)N2CCCC(C(=O)OCC)C2)cc1-c1nc2cc(Cl)c([N+](=O)[O-])cc2c(=O)[nH]1 (stereo not given)
88 to 91.5 | CN(C)Cc1cnc(NC(=O)[C@H](CC2CCCC2)c2ccc(S(C)(=O)=O)c(Cl)c2)cn1
167 to 168 | CCCN(CCC)C(=O)C1Cc2ccccc2N1c1nc(-c2ccccc2)nc(C)c1C (stereo not given)
111 to 113 | Cc1nc(NC(=O)c2cccc(S(C)(=O)=O)c2)sc1C(=O)NCc1ccccc1
155 to 157 | COC1=CC=CC(OCCCN2CCN(c3n[nH]c4ccccc34)CC2)(C(C)=O)C1 (stereo not given)
187 to 188 | Cc1ccn(-c2ccc(S(N)(=O)=O)cc2)c1-c1ccc(F)cc1
150 to 153 | O=CCC(=O)Nc1ccccc1
169 to 170 | COC1CN(C(=O)c2cc(-c3ccccc3)c(=O)n3nc(C)c4ccsc4c23)C1
221 | OC1CSC(Oc2cncc(-c3ccc(F)cc3F)c2)C(O)C1O (stereo not given)
238 | CCCOc1ccc(F)cc1C1=NC(=O)C2=NC=NC2=N1
97 to 99 | O=S(=O)(c1ccccc1)N1CCC(C(O)(c2ccc(F)cc2)c2ccc(F)c(F)c2)CC1 (stereo not given)
233 to 234 | O=c1c2c(nc3ccc(Br)cn13)C(=Cc1ccc(Cl)cc1)CC2
235 to 237 | COC1=C(C(=O)c2ccc(OC)cc2)C(c2ccc(C(C)(C)C)cc2)N(c2nnc(C)s2)C1=O (stereo not given)

melting point [°C] | SMILES
118 to 119 | Cn1nc(CO)nc1NCCCOc1cccc(CN2CCCCC2)c1
74 to 76 | Clc1cc(Cl)c2c(c1)CCC(c1ccccc1)O2 (stereo not given)
86 to 98 | CN1Cc2cccnc2C(N2CCN(C(=O)CC3CCN(C(=O)OC(C)(C)C)CC3)CC2)c2ccc(Cl)cc21 (stereo not given)
88 | COCCN(C)C1CCN(c2ccc(N)cc2C#N)CC1
99 to 100 | CCSc1cc(C)nc(SCC)c1NC(=O)CCCCCCCSc1nc2cccc(C(F)(F)F)c2o1
81 to 82 | CC(O)(CC(=O)O)c1ccc(-c2ccc(F)cc2)cc1 (stereo not given)
246 to 250 | Cc1ccc(C(C#N)C(=O)C(=O)C(C#N)c2ccc(C)cc2)cc1 (stereo not given)
157 to 159 | CC(C)=NNc1nc(Cl)c(-c2c(F)cc(F)cc2F)c(NC(C)C(F)(F)F)n1 (stereo not given)
125 to 130 | CCOC(=O)C1=C(COCCO)NC(C)=C(C(=O)OC)C1c1ccccc1Cl (stereo not given)
243 to 244 | CC(=O)N1CCN(c2nc(Nc3ccc(F)cc3F)c(C(=O)O)cc2F)CC1
143 to 145 | O=C(O)C(Cc1occ2ccccc12)NC(=O)C(CS)C(F)(F)F (stereo not given)
199 to 201 | COc1ccc2ccccc2c1C1OC(=O)NC1=O (stereo not given)
262 to 263 | CNc1ccccc1-c1nc2ncccc2[nH]1
191 to 192 | Cc1ccc(C[C@H]2NC(=O)CN(Cc3ccccc3)C2=O)cc1C
167 | O=C1CCCc2nc3ccccc3c(NCc3ccccc3C(F)(F)F)c21
100 | Brc1ccc(N2CCN(Cc3ccccc3)CC2)nc1
88 | C#CCCCCC12SCC(CCC)(CS1)CS2
181 to 183 | Nc1nc(N)c(CCCc2cccc3ccccc23)c(N)n1
110 to 112 | Fc1ccc(N2CCN(Cc3cn4cc(Br)ccc4n3)CC2)cc1
125 to 126 | O=C(O)CCc1cnoc1-c1ccc(F)cc1F
174 to 175 | CCCN(CCC)CCCC1CCN(CCNC(=O)N2c3cc(Cl)ccc3C(=O)Nc3cccnc32)CC1

SMILES | melting point [°C]
CCCCCCCCCCCCCCCCCc1nnc2n1-c1sc(CC)cc1C(c1ccc(C)cc1)=NC2 | 78 to 80
COc1ccc2cc(C3(O)CN4CCC3CC4)ccc2c1 (racemic) | > 330
O=C(O)c1ncn2c1[C@@H]1CCN1C(=O)c1c-2ccc(F)c1Cl | 225 to 226
CN(C)C1(c2ccccc2)CCC(CNC(=O)N2CCC(c3c[nH]c4ccc(Cl)cc34)CC2)CC1 (stereo not given) | 140 to 143
O=C(CCc1c(O)c2ccccc2oc1=O)c1ccccc1 | 149 to 151
CC(Cl)OC(=O)c1ncc[nH]1 (stereo not given) | 50
COc1cc2c(cc1OC)C(c1ccccc1OC)=NN=C(C)C2 | 119 to 121
